Measurements as given in patent US11932626B2, “2-pyrimidone analogs as potent antiviral agents against Alphaviruses” (priority 2020, dated 2024).
pEC50: −log10 of the molar value.

Key:
VEEV (TC-83) = test: microbe, parasite or virus in culture; type: cell-based; details: Venezuelan equine encephalitis virus, read-out: VEEV EC50
in vitro = details: human
[1] = system: CHIKV linked NanoLuc luciferase reporter; test: microbe, parasite or virus in culture; type: cell-based; details: Chikungunya virus, read-out: CHIKV EC50
CHIKV = CHIKV virus titer reduction (VTR) assay in NHDF cells; type: cell-based; details: Chikungunya virus; for log reduction at 10 µM: CHIKV titer reduction at 10 μM, normal human dermal fibroblasts (NHDF) cells; for EC90: effective concentration of 90% inhibition of virus in a VTR assay, NHDF cells
VEEV = test: microbe, parasite or virus in culture; type: cell-based; details: Venezuelan equine encephalitis virus, NHDF; for EC90: read-out: VEEV EC90; for log reduction at 10 µM: read-out: VEEV VTR

O=C(COc1cc(C2CCC2)[nH]c(=O)n1)NC12CC3CC(CC(C3)C1)C2 [compound 12, N-(Adamantan-1-Yl)-2-((6-Cyclobutyl-2-Oxo-1,2-Dihydropyrimidin-4-Yl)Oxy)Acetamide]
pEC50 (VEEV (TC-83)): 5.73
CC50 (in vitro): > 40000 nM
pEC50 [1]: 6.96
log reduction at 10 µM (CHIKV): 3.31
EC90 (CHIKV): 100 nM
EC90 (VEEV): 100 nM
log reduction at 10 µM (VEEV): 3.1

O=C(COc1cc(C2CCCC2)[nH]c(=O)n1)NC12CC3CC(CC(C3)C1)C2 [compound 13, N-(Adamantan-1-Yl)-2-((6-Cyclopentyl-2-Oxo-1,2-Dihydropyrimidin-4-Yl)Oxy)Acetamide]
pEC50 (VEEV (TC-83)): 4.76
CC50 (in vitro): > 40000 nM
pEC50 [1]: 5.91
log reduction at 10 µM (CHIKV): 5.93
EC90 (CHIKV): 40 nM
EC90 (VEEV): 4500 nM
log reduction at 10 µM (VEEV): 1.94

O=C(COc1cc(C2CC(F)(F)C2)[nH]c(=O)n1)NC12CC3CC(CC(C3)C1)C2 [compound 14, N-(Adamantan-1-Yl)-2-((6-(3,3-Difluorocyclobutyl)-2-Oxo-1,2-Dihydropyrimidin-4-Yl)Oxy)Acetamide]
pEC50 (VEEV (TC-83)): 6.08
CC50 (in vitro): > 40000 nM
pEC50 [1]: > 7.11
log reduction at 10 µM (CHIKV): 3.17
EC90 (CHIKV): 70 nM
EC90 (VEEV): 30 nM
log reduction at 10 µM (VEEV): 8.19

O=C(COc1cc(-c2ccccc2)[nH]c(=O)n1)NC12CC3CC(CC(C3)C1)C2 [compound 15, N-(Adamantan-1-Yl)-2-((2-Oxo-6-Phenyl-1,2-Dihydropyrimidin-4-Yl)Oxy)Acetamide]
pEC50 (VEEV (TC-83)): 4.68
CC50 (in vitro): > 40000 nM
pEC50 [1]: 5.83
log reduction at 10 µM (CHIKV): 8.93
EC90 (CHIKV): 2700 nM
EC90 (VEEV): 2020 nM
log reduction at 10 µM (VEEV): 3.25

O=C(COc1cc(C(F)(F)F)[nH]c(=O)n1)NC12CC3CC(CC(C3)C1)C2 [compound 16, N-(Adamantan-1-Yl)-2-((2-Oxo-6-(Trifluoromethyl)-1,2-Dihydropyrimidin-4-Yl)Oxy)Acetamide]
pEC50 (VEEV (TC-83)): < 4.40
CC50 (in vitro): > 40000 nM
pEC50 [1]: < 4.40
log reduction at 10 µM (CHIKV): 1.09
EC90 (CHIKV): 15000 nM
EC90 (VEEV): > 10000 nM
log reduction at 10 µM (VEEV): 0

N#Cc1ccc(-c2cc(OCC(=O)NC34CC5CC(CC(C5)C3)C4)nc(=O)[nH]2)cc1 [compound 17, N-(Adamantan-1-Yl)-2-((6-(4-Cyanophenyl)-2-Oxo-1,2-Dihydropyrimidin-4-Yl)Oxy)Acetamide]
pEC50 (VEEV (TC-83)): < 4.40
CC50 (in vitro): > 40000 nM
pEC50 [1]: < 4.40
log reduction at 10 µM (CHIKV): 1.59
EC90 (CHIKV): > 40000 nM
EC90 (VEEV): 9800 nM
log reduction at 10 µM (VEEV): 3.69

O=C(COc1cc(Cl)[nH]c(=O)n1)NC12CC3CC(CC(C3)C1)C2 [compound 18, N-(Adamantan-1-Yl)-2-((6-Chloro-2-Oxo-1,2-Dihydropyrimidin-4-Yl)Oxy)Acetamide]
pEC50 (VEEV (TC-83)): 4.79
CC50 (in vitro): > 40000 nM
pEC50 [1]: 6.09
log reduction at 10 µM (CHIKV): 5.19
EC90 (CHIKV): 510 nM
EC90 (VEEV): 5650 nM
log reduction at 10 µM (VEEV): 1

O=C(COc1cc(N2CCOCC2)[nH]c(=O)n1)NC12CC3CC(CC(C3)C1)C2 [compound 19, N-(Adamantan-1-Yl)-2-((6-Morpholino-2-Oxo-1,2-Dihydropyrimidin-4-Yl)Oxy)Acetamide]
pEC50 (VEEV (TC-83)): 4.48
CC50 (in vitro): > 40000 nM
pEC50 [1]: 5.62
log reduction at 10 µM (CHIKV): 4.84
EC90 (CHIKV): 740 nM
EC90 (VEEV): 3200 nM
log reduction at 10 µM (VEEV): 4.4

O=C(COc1cc(N2CC(F)(F)C2)[nH]c(=O)n1)NC12CC3CC(CC(C3)C1)C2 [compound 20, N-(Adamantan-1-Yl)-2-((6-(3,3-Difluoroazetidin-1-Yl)-2-Oxo-1,2-Dihydropyrimidin-4-Yl)Oxy)Acetamide]
pEC50 (VEEV (TC-83)): 5.70
CC50 (in vitro): > 40000 nM
pEC50 [1]: > 7.11
log reduction at 10 µM (CHIKV): 3.49
EC90 (CHIKV): 67 nM
EC90 (VEEV): 400 nM
log reduction at 10 µM (VEEV): 6.63

O=C(COc1nc(=O)[nH]c2c1CCC2)NC12CC3CC(CC(C3)C1)C2 [compound 21, N-(Adamantan-1-Yl)-2-((2-Oxo-2,5,6,7-Tetrahydro-1H-Cyclopenta[D]Pyrimidin-4-Yl)Oxy)Acetamide]
pEC50 (VEEV (TC-83)): 4.80
CC50 (in vitro): > 40000 nM
pEC50 [1]: 6.28
log reduction at 10 µM (CHIKV): 4.26
EC90 (CHIKV): 300 nM
EC90 (VEEV): 1000 nM
log reduction at 10 µM (VEEV): 5.2

O=C(COc1nc(=O)[nH]c2c1CCCC2)NC12CC3CC(CC(C3)C1)C2 [compound 22, N-(Adamantan-1-Yl)-2-((2-Oxo-1,2,5,6,7,8-Hexahydroquinazolin-4-Yl)Oxy)Acetamide]
pEC50 (VEEV (TC-83)): 5.06
CC50 (in vitro): > 40000 nM
pEC50 [1]: 6.19
log reduction at 10 µM (CHIKV): 4.94
EC90 (CHIKV): 45 nM
EC90 (VEEV): 1440 nM
log reduction at 10 µM (VEEV): 7.02

O=C(COc1nc(=O)[nH]c2c1COCC2)NC12CC3CC(CC(C3)C1)C2 [compound 23, N-(Adamantan-1-Yl)-2-((2-Oxo-1,5,7,8-Tetrahydro-2H-Pyrano[4,3-D]Pyrimidin-4-Yl)Oxy)Acetamide]
pEC50 (VEEV (TC-83)): 4.96
CC50 (in vitro): > 40000 nM
pEC50 [1]: 5.95
log reduction at 10 µM (CHIKV): 5.85
EC90 (CHIKV): 200 nM
EC90 (VEEV): 2100 nM
log reduction at 10 µM (VEEV): 6.4

O=C(COc1nc(=O)[nH]c2ccccc12)NC12CC3CC(CC(C3)C1)C2 [compound 24, N-(Adamantan-1-Yl)-2-((2-Oxo-1,2-Dihydroquinazolin-4-Yl)Oxy)Acetamide]
pEC50 (VEEV (TC-83)): < 4.40
CC50 (in vitro): > 40000 nM
pEC50 [1]: 6.33
log reduction at 10 µM (CHIKV): 6.28
EC90 (CHIKV): 300 nM
EC90 (VEEV): 3200 nM
log reduction at 10 µM (VEEV): 1

Cc1c[nH]c(=O)nc1OCC(=O)NC12CC3CC(CC(C3)C1)C2 [compound 25, N-(Adamantan-1-Yl)-2-((5-Methyl-2-Oxo-1,2-Dihydropyrimidin-4-Yl)Oxy)Acetamide]
pEC50 (VEEV (TC-83)): 4.79
CC50 (in vitro): > 40000 nM
pEC50 [1]: 5.71
log reduction at 10 µM (CHIKV): 4.91
EC90 (CHIKV): 2100 nM
EC90 (VEEV): 2830 nM
log reduction at 10 µM (VEEV): 3.04

O=C(COc1nc(=O)[nH]cc1F)NC12CC3CC(CC(C3)C1)C2 [compound 26, N-(ADAMANTAN-1-YL)-2-((5-FLUORO-2-OXO-1,2-DIHYDROPYRIMIDIN-4-YL)OXY)ACETAMIDE]
pEC50 (VEEV (TC-83)): < 4.40
CC50 (in vitro): > 40000 nM
pEC50 [1]: 5.50
log reduction at 10 µM (CHIKV): 5.19
EC90 (CHIKV): 300 nM
EC90 (VEEV): 100 nM
log reduction at 10 µM (VEEV): 3.22

O=C(COc1nc(=O)[nH]cc1F)NC1C2CC3CC(C2)CC1C3 (stereo not drawn) [compound 27, N-(Adamantan-2-Yl)-2-((5-Fluoro-2-Oxo-1,2-Dihydropyrimidin-4-Yl)Oxy)Acetamide]
pEC50 (VEEV (TC-83)): < 4.40
CC50 (in vitro): > 40000 nM
pEC50 [1]: 4.49
log reduction at 10 µM (CHIKV): 1.31
EC90 (CHIKV): 8750 nM
EC90 (VEEV): 10000 nM
log reduction at 10 µM (VEEV): 0

O=C(COc1nc(=O)[nH]cc1Cl)NC12CC3CC(CC(C3)C1)C2 [compound 28, N-(Adamantan-1-Yl)-2-((5-Chloro-2-Oxo-1,2-Dihydropyrimidin-4-Yl)Oxy)Acetamide]
pEC50 (VEEV (TC-83)): < 4.40
CC50 (in vitro): > 40000 nM
pEC50 [1]: 4.48
log reduction at 10 µM (CHIKV): 1.6
EC90 (CHIKV): 10000 nM
EC90 (VEEV): > 10000 nM
log reduction at 10 µM (VEEV): 0.71

Cc1[nH]c(=O)nc(OCC(=O)NC23CC4CC(CC(C4)C2)C3)c1C [compound 29, N-(Adamantan-1-Yl)-2-((5,6-Dimethyl-2-Oxo-1,2-Dihydropyrimidin-4-Yl)Oxy)Acetamide]
pEC50 (VEEV (TC-83)): < 4.40
CC50 (in vitro): > 40000 nM
pEC50 [1]: 5.64
log reduction at 10 µM (CHIKV): 4.24
EC90 (CHIKV): 400 nM
EC90 (VEEV): 2970 nM
log reduction at 10 µM (VEEV): 2.91
